Values of other authors as cited in PMC11206245 (Pharmaceuticals, 2024).
Read-outs that look alike come from different tables or passages of the source.

What was measured:
[1] = tested on: dogs; set-up: method as in PMID 15986212; conditions: cited from earlier work
[2] = set-up: method as in PMID 22124669, PMID 20618337; conditions: humans; cited from earlier work

SMILES	Toxicity outcome ([1]; 16 mg/m^2 orally)	Toxicity outcome ([1]; daily intravenous dose of 8 mg/m^2)	Toxicity outcome ([1]; intravenous daily doses of 16 mg/m^2)	half-life [2]
CO[C@H]1/C=C\C=C(/C)C(=O)NC2=CC(=O)C(NCCN(C)C)=C(C[C@@H](C)C[C@H](OC)[C@H](O)[C@@H](C)/C=C(\C)[C@@H]1OC(N)=O)C2=O [17-DMAG, 17-dimethylaminoethylamino-17-demetoxigeldanamycin]	Toxicity was also observed	Toxicity was also observed	fatal	
CO[C@H]1/C=C\C=C(/C)C(=O)NC2=CC(=O)C(N)=C(C[C@@H](C)C[C@H](OC)[C@H](O)[C@@H](C)/C=C(\C)[C@@H]1OC(N)=O)C2=O [17-AG, 17-amino-geldanamycin]				6.2 to 7.6 h
